Results on 15 compounds are retold here after patent US9302998B2, “Aryl triazole compounds with antitumoural activity” (SIGMA-TAU RESEARCH SWITZERLAND S.A., priority 2010, dated 2016).

In assay [1] the target is T1, Hsp90 (Homo sapiens, UniProt P07900).
T1 construct: purchased Stressgen SPP-776
The assay is described as follows: Fluorescence Polarization (FP) binding, GM-BODIPY displacement from Hsp90. Particulars: GM-BODIPY tracer, 4° C. for 4 hours. The protocol:
GM-BODIPY (PerkinElmer, CUSN60342000MG) was previously dissolved in DMSO to obtain 10 mM stock solutions and kept at −20° C. until use.
Hsp90 (Stressgen, SPP-776), was previously dissolved in assay buffer (HFB) to form 2.2 μM stock solutions and kept at −80° C. until use.
The compounds were previously dissolved in DMSO to obtain stock solutions and kept at −20° C. The day of experiment, the compounds were prepared by serial dilutions in assay buffer (HFB) containing 20 mM HEPES (K) pH 7.3, 50 mM KCl, 5 mM MgCl2, 20 mM Na2MoO4 and 0.01% NP40. Before each use, 0.1 mg/ml Bovine Gamma globulin and 2 mM DTT were freshly added.
Fluorescence Polarization (FP) was performed in Opti-Plate™-96F well plates (Perkin Elmer, Zaventem, Belgium) using a plate reader (Wallac Envision 2101 multilabel reader, Perkin Elmer, Zaventem, Belgium). To evaluate the binding affinity of the molecules, 50 μl of the GM-BODIPY solution (100 nM) were added to 125 nM of Hsp90 in the presence of 5 μl of the test compounds at increasing concentrations. The plate was mixed on a shaker at 4° C. for 4 hours, and the FP values in mP (millipolarization units) were recorded. The IC50 values were calculated as the inhibitor concentration where 50% of the tracer is displaced; each data point is the result of the average of triplicate wells, and was determined from a plot using nonlinear least-squares analysis. Curve fitting was performed using
Prism GraphPad software program (GraphPad software, Inc., San Diego, Calif.).
(In fluorescence polarisation assays a small probe gives low polarisation when free and higher when bound to something large.)

In assay [2] the test system is NCI-H460 non-small cell lung carcinoma. Nature of the assay: Cytotoxicity assay, sulphorodamine B test, NCI-H460. It counts as cell-based. The conditions noted are these: Homo sapiens, NCI-H460; 72 h, sulphorodamine B. Here is the method:
(§1) The antiproliferative activity of novel Hsp90 inhibitors was also evaluated on various cancerous cell lines by means of the sulphorodamine B test (i.e., NCI-H460 non-small cell lung carcinoma, A431 epidermoid, A2780 ovarian, MDA-MB436 triple-negative breast, U87MG glioblastoma, A498 renal, HCT116 colon, MeWo melanoma, MiaPaCa2 pancreas, HeLa cervix uteri, NB4 promyelocytic leukemia). NCI-H460, A431, MDA-MB436, A2780, A498, HeLa, NB4 tumour cells were grown in RPMI 1640 containing 10% fetal bovine serum (i.e., FBS from GIBCO), L-glutamine, and 50 μg/ml gentamycin sulfate.
(§2) All cell lines were maintained in a 37° C. incubator with saturated humidity and an atmosphere containing 95% air and 5% CO2, and were sub-cultured every 2-3 days. Tumour cells were seeded in 96-well tissue culture plates at approximately 10% confluence and were allowed to attach and recover for 24 h.
(§3) Varying concentrations of the drugs were then added to each well to calculate their IC50 value (the concentration which inhibits the 50% of cell survival). The plates were incubated at 37° C. for 72 h. At the end of the treatment, the plates were washed by remotion of the supernatant and addition of PBS 3 times. 200 μl PBS and 50 μl of cold 80% trichloroacetic acid (TCA) were added. The plates were incubated on ice for at least 1 h. TCA was removed, the plates were washed 3 times by immersion in distilled-water and dried on paper and at 40° C. for […]. Then 200 μl of 0.4% sulphorodamine B in 1% acetic acid were added. The plates were incubated at room temperature for 30 min. Sulphorodamine B was removed, the plates were washed by immersion in 1% acetic acid for 3 times, then they were dried on paper and at 40° C. for 5 min. Then, 200 μl Tris 10 mM were added, the plates were kept under stirring for 20 min. The cell survival was determined as optical density by a Multiskan […] at 540 nm. The amount of cells killed was calculated as the percentage decrease in sulphorodamine B binding compared with control cultures.

Assay [3] deals with U87MG glioblastoma. Nature of the assay: Sulphorodamine B test at single concentration, U87MG. The assay is classed as cell-based. The conditions noted are these: Homo sapiens, U-87 MG; 500 nM, 72 h. The protocol: as §1
(§4) MeWo and U87-MG cells were cultured in Eagle's Minimum Essential Medium (i.e., EMEM) containing 10% FBS, L-glutamine, 1 mM sodium pyruvate, 0.1 mM non-essential amino acids, 1.5 g/l sodium bicarbonate, and 50 μg/ml gentamycin sulphate.
as §2, §3
(§5) The other cell lines were screened against one single concentration of the various inhibitors (i.e., 500 nM), all experiments being made in octuplicate, following the protocol described at example 35. Since NB4 cell line was grown in suspension, a further step of centrifugation (i.e., 1600 g for 10 min) was added after the 72 hour incubation period.

Assay [4] deals with MeWo melanoma. The assay is described as follows: Sulphorodamine B test at single concentration, MeWo. The assay is classed as cell-based. Particulars: Homo sapiens, 500 nM, 72 h. Here is the method:
as §1, §4, §2, §3, §5

Assay [5] concerns HCT116 colon. The assay is described as follows: Sulphorodamine B test at single concentration, HCT116. It counts as cell-based. Particulars: Homo sapiens, HCT-116; 500 nM, 72 h. Here is the method:
as §1
HCT116 cells were cultured in McCoy's medium containing 10% FBS, L-glutamine, and 50 μg/ml gentamycin sulfate.
as §2, §3, §5

For assay [6], the system named is A2780 ovarian. Nature of the assay: Sulphorodamine B test at single concentration, A2780. Particulars: Homo sapiens, 500 nM, 72 h. It counts as cell-based. The protocol:
as §1, §2, §3, §5

Assay [7] has as its system A431 epidermoid. The assay is described as follows: Sulphorodamine B test at single concentration, A431. Particulars: Homo sapiens, A-431; 500 nM, 72 h. The assay is classed as cell-based. The protocol: as §1, §2, §3, §5
Assay [8] has as its system MDA-MB436 triple-negative breast. Nature of the assay: Sulphorodamine B test at single concentration, MDA-MB436. It counts as cell-based. Particulars: Homo sapiens, MDA-MB-436; 500 nM, 72 h. The protocol:
as §1, §2, §3, §5

The subject of assay [9] is MiaPaCa2 pancreas. Nature of the assay: Sulphorodamine B test at single concentration, MiaPaCa2. The assay is classed as cell-based. The conditions noted are these: Homo sapiens, MIA PaCa-2; 500 nM, 72 h. Here is the method: as §1
MiaPaCa2 cells were cultured in DMEM medium containing 10% FBS, L-glutamine, and 50 μg/ml gentamycin sulfate.
as §2, §3, §5

Assay [10] deals with NB4 promyelocytic leukemia. The assay is described as follows: Sulphorodamine B test at single concentration, NB4. The assay is classed as cell-based. The conditions noted are these: 500 nM, 72 h, suspension cells. The protocol:
as §1, §2, §3, §5

The subject of assay [11] is A498 renal. The assay is described as follows: Sulphorodamine B test at single concentration, A498. The conditions noted are these: Homo sapiens, 500 nM, 72 h. It counts as cell-based. Here is the method: as §1, §2, §3, §5
Assay [12] concerns HeLa cervix uteri. Nature of the assay: Sulphorodamine B test at single concentration, HeLa. The assay is classed as cell-based. Particulars: Homo sapiens, 500 nM, 72 h. Here is the method:
as §1, §2, §3, §5

Usually IC50 stands for the concentration that inhibits the measured activity by half. A word on the inhibition: it is the percentage by which the read-out fell short of the control. Lower therefore signals a response near the control.

SMILES strings stand for the structures.

For the compound `CC(C)c1cc(-n2nncc2-c2ccc(CN3CCOCC3)cc2)c(O)cc1O` [Example 1], the IC50 in assay [1] was under 50 nM; in assay [2], 100 to 500 nM.
On to `CCNC(=O)c1nnn(-c2cc(C(C)C)c(O)cc2O)c1-c1ccc(CNCCN2CCOCC2)cc1` [Example 14, 1-(2,4-dihydroxy-5-isopropyl-phenyl)-5-{4-[(2-morpholin-4-yl-ethylamino)-methyl]-phenyl}-1H-[1,2,3]triazole-4-carboxylic acid ethylamide], for which the inhibition at 0.5 µM in assay [3] was at least 50%; in assay [4] it was at least 50%; in assay [5], 30 to 50%; in assay [6], at least 50%; in [7], at least 50%; in [8] it was at least 50%. Moreover, the inhibition at 0.5 µM in assay [9] was at least 50%. Besides, the IC50 in assay [1] was under 50 nM; in [2] it was 100 to 500 nM.
Turning to `CC(C)c1cc(-n2nncc2Nc2ccc(N3CCOCC3)cc2)c(O)cc1O` [Example 23, 4-isopropyl-6-[5-(4-morpholin-4-yl-phenylamino)-[1,2,3]triazol-1-yl]-benzene-1,3-diol], in assay [1], the half-inhibitory concentration (IC50) was 50 to 100 nM.
On to `CCNC(=O)c1nnn(-c2cc(C(C)C)c(O)cc2O)c1-c1ccc(CNCCCN(CC)CC)cc1` [Example 18, 5-{4-[(3-diethylamino-propylamino)-methyl]-phenyl}-1-(2,4-dihydroxy-5-isopropyl-phenyl)-1H-[1,2,3]triazole-4-carboxylic acid ethylamide], for which the IC50 is under 50 nM in assay [1] and 500 to 1000 nM in [2].
As for `CCNC(=O)c1nnn(-c2cc(C(C)C)c(O)cc2O)c1NCc1ccc(N2CCOCC2)cc1` [Example 26, 1-(2,4-dihydroxy-5-isopropyl-phenyl)-5-(4-morpholin-4-yl-benzylamino)-1H-[1,2,3]triazole-4-carboxylic acid ethylamide], the inhibition at 0.5 µM in assay [4] was 30 to 50%; in assay [10] it was 30 to 50%; in assay [5], at least 50%; in assay [6] it was at least 50%; in assay [11], at least 50%; in assay [9] it was at least 50%. The IC50 is under 50 nM in [1] and 100 to 500 nM in assay [2].
`CC(C)c1cc(-n2nncc2NCc2ccc(N3CCOCC3)cc2)c(O)cc1O` [Example 24, 4-isopropyl-6-[5-(4-morpholin-4-yl-benzylamino)-[1,2,3]triazol-1-yl]-benzene-1,3-diol] had an IC50 in [1] of 100 to 500 nM.
On the same count and under the same terms, under `CC(C)c1cc(-n2nnc(C(=O)N[C@H](C(=O)O)C(C)C)c2-c2ccc(CN3CCOCC3)cc2)c(O)cc1O` [Example 31, (S)-2-{[1-(2,4-dihydroxy-5-isopropyl-phenyl)-5-(4-morpholin-4-ylmethyl-phenyl)-1H-[1,2,3]triazole-4-carbonyl]-amino}-3-methyl-butyric acid] stands 100 to 500 nM.
Regarding `CCNC(=O)c1nnn(-c2cc(C(C)C)c(O)cc2O)c1Nc1ccc(N2CCOCC2)cc1` [Example 25, 1-(2,4-dihydroxy-5-isopropyl-phenyl)-5-(4-morpholin-4-yl-phenylamino)-1H-[1,2,3]triazole-4-carboxylic acid ethylamide], the figures for the IC50 in [1] and in assay [2] were 50 to 100 nM and 500 to 1000 nM, respectively.
On to `CCNC(=O)c1nnn(-c2cc(C(C)C)c(O)cc2O)c1-c1ccc(CN(CC)CC)cc1` [Example 10, 5-(4-diethylaminomethyl-phenyl)-1-(2,4-dihydroxy-5-isopropyl-phenyl)-1H-[1,2,3]triazole-4-carboxylic acid ethylamide], for which the IC50 in [1] and in assay [2] was under 50 nM throughout.
For the compound `CC(C)c1cc(-n2nncc2-c2ccc(CN3CCN(c4ccccc4)CC3)cc2)c(O)cc1O` [Example 4, 4-isopropyl-6-{5-[4-(4-phenyl-piperazin-1-ylmethyl)-phenyl]-[1,2,3]triazol-1-yl}-benzene-1,3-diol], the IC50 in [1] was under 50 nM; in [2], 500 to 1000 nM.
`CCNC(=O)c1nnn(-c2cc(C(C)C)c(O)cc2O)c1-c1ccc(CNC2CCN(C)CC2)cc1` [Example 19, 1-(2,4-dihydroxy-5-isopropyl-phenyl)-5-{4-[(1-methyl-piperidin-4-ylamino)-methyl]-phenyl}-1H-[1,2,3]triazole-4-carboxylic acid ethylamide] yielded an IC50 in [1] of under 50 nM.
In the case of `CCNC(=O)c1nnn(-c2cc(C(C)C)c(O)cc2O)c1-c1ccc(CNC2CCCCC2)cc1` [Example 16, 5-(4-cyclohexylaminomethyl-phenyl)-1-(2,4-dihydroxy-5-isopropyl-phenyl)-1H-[1,2,3]triazole-4-carboxylic acid ethylamide], the IC50 in assay [1] and in assay [2] was under 50 nM throughout.
For the compound `CCNC(=O)c1nnn(-c2cc(C(C)C)c(O)cc2O)c1-c1ccc(CN2CCNCC2)cc1` [Example 12, 1-(2,4-dihydroxy-5-isopropyl-phenyl)-5-(4-piperazin-1-ylmethyl-phenyl)-1H-[1,2,3]triazole-4-carboxylic acid ethylamide], the inhibition at 0.5 µM is at least 50% in assay [6], 30 to 50% in assay [11], at least 50% in assay [8] and at least 50% in assay [9]. Moreover, the IC50 was under 50 nM in [1] and 100 to 500 nM in assay [2].
For `CC(C)c1cc(-n2nnc(C(=O)N3CCOCC3)c2-c2ccc(CN3CCOCC3)cc2)c(O)cc1O` [Example 30, [1-(2,4-dihydroxy-5-isopropyl-phenyl)-5-(4-morpholin-4-ylmethyl-phenyl)-1H-[1,2,3]triazol-4-yl]-morpholin-4-yl-methanone], the IC50 in assay [1] was 100 to 500 nM.
As to `CC(C)c1cc(-n2nncc2-c2ccc(CN3CCN(Cc4ccccc4)CC3)cc2)c(O)cc1O` [Example 3, 4-{5-[4-(4-benzyl-piperazin-1-ylmethyl)-phenyl]-[1,2,3]triazol-1-yl}-6-isopropyl-benzene-1,3-diol], the inhibition at 0.5 µM in assay [12], in [4], in [10], in assay [5], in assay [6] and in [7] was at least 50% throughout. Also, the inhibition at 0.5 µM in assay [11] is 30 to 50%; in [8], at least 50%; in assay [9], at least 50%. In addition, the values for the IC50 in [1] and in [2] were under 50 nM and 100 to 500 nM, respectively.
